How the values were obtained:
human neutrophils = assay: Human neutrophil oxidative activity, luminol-enhanced chemiluminescence; type: cell-based; conditions: for EC50: Homo sapiens, Neutrophil, human neutrophil experiment w/o Rolipram, read-out: PMN oxid (-log EC50) (converted); for PMN oxid + roli (-log EC50): human neutrophil experiment w/Rolipram
Procedure: Chemiluminescence Methods: Lumninol enhanced chemiluminescence, a measure of neutrophil oxidative activity, is dependent upon both superoxide production and mobilization of the granule enzyme myeloperoxidase. The light is emitted from unstable high-energy oxygen species such as hypochlorous acid and singlet oxygen generated by activated neutrophils.
The plate was incubated 5 min (37 C) and then fMLP (50 l in HA; final concentration […]) was added to all wells.
Data are presented as peak chemiluminescence as percent of activity in the absence of an adenosine agonist. The EC50 was determined using PRISM software. All compounds were tested with PMNs from three separate donors.
Lummol-enhanced chemiluminescence, a measure of neutrophil oxidative activity, is dependent upon both superoxide production and mobilization of the lysosomal granule enzyme myeloperoxidase. The light is emitted from unstable high-energy oxygen species generated by activated neutrophils. Purified neutrophils (5-10×10^5/ml) were incubated in Hanks balanced salt solution containing 0.1% human serum albumin (1 ml) with the tested A2A agonist with or without rolipram and with or without tumor necrosis factor-alpha (1 U/ml) for 30 minutes at 37° C. in a shaking water bath. […] Chemiluminescence is reported as relative peak light emitted (=height of the curve) compared to samples with tumor necrosis factor-alpha and without agonist or rolipram.

human A1 AR = target: T1, human A1 AR (Homo sapiens, UniProt P30542); assay: Radioligand competition binding (125I-ABA) to human A1 AR in CHO K1 cell membranes; conditions: for Ki: A1 ± SEM, Ki from competition binding, 125I-ABA, CHO K1 cell membranes; for A1/A2A: selectivity ratio A1 over A2A
T1 sequence (P30542 1-326): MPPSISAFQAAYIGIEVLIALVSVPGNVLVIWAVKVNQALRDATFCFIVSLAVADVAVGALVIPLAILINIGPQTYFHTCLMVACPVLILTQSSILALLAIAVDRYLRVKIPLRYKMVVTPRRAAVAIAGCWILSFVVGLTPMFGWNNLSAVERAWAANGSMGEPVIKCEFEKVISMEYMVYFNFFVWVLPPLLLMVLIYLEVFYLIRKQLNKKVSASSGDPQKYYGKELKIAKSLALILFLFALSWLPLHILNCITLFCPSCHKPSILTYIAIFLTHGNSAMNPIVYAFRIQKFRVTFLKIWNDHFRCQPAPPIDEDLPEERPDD

A3 AR = target: T2, A3 AR (Homo sapiens, UniProt P0DMS8); assay: Radioligand competition binding (125I-ABA) to human A3 AR in HEK 293 cell membranes; conditions: for Ki: A3 ± SEM, Ki from competition binding, 125I-ABA, HEK 293 cell membranes; for A3/A2A: selectivity ratio A3 over A2A
T2 sequence (P0DMS8 1-318): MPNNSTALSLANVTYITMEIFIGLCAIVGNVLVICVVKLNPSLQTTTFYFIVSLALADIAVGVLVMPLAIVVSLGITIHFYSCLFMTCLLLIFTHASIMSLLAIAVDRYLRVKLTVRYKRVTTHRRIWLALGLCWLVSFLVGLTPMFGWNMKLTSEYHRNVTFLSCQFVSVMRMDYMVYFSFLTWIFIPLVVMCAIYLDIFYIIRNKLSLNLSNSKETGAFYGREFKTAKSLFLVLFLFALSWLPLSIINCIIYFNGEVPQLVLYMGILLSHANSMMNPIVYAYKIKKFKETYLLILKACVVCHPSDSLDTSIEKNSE

[1] = target: recombinant human A2A receptors (Homo sapiens, UniProt P29274); assay: Radioligand competition binding to recombinant human A2A receptors in Sf9 cell membranes; conditions: A2A ± SEM, Ki from competition binding, Sf9 cell membranes
Sequence of recombinant human A2A receptors (P29274 whole entry): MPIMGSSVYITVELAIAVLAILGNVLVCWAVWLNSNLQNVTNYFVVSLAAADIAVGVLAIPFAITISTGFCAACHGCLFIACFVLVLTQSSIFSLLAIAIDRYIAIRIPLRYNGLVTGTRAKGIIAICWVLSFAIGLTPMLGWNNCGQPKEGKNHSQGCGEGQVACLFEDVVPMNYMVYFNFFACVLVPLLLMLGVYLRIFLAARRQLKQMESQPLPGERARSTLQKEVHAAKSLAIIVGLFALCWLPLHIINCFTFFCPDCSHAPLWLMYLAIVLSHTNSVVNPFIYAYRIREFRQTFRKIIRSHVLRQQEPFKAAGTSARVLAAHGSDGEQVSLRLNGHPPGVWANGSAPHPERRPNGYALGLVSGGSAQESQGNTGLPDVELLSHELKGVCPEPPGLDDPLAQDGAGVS

EC50 (human neutrophils) [nM]	PMN oxid + roli (-log EC50) (human neutrophils)	Ki (human A1 AR) [nM]	A1/A2A (human A1 AR)	Ki (A3 AR) [nM]	A3/A2A (A3 AR)	Ki [1] [nM]	Compound
2.19	9.63	3.8 ± 0.4	7.0	7.3 ± 1.9	13.5	0.5 ± 0.05	CCNC(=O)[C@H]1O[C@@H](n2cnc3c(N)nc(C#CC4(O)CCC(CC)CC4)nc32)C(O)C1O (stereo in doubt) [JR-3149, 5-[6-Amino-2-(4-ethyl-1-hydroxy-cyclohexylethynyl)-purin-9-yl]-3,4-dihydroxytetrahydrofuran-2-carboxylic acid ethylamide]
537	7.67	784 ± 94	70.6	152 ± 62	13.7	11.1 ± 2.8	CCNC(=O)[C@H]1O[C@@H](n2cnc3c(N)nc(C#CC4(O)CC(C)(C)CC(C)(C)C4)nc32)C(O)C1O (stereo in doubt) [JR-3163, 5-[6-Amino-2-(1-hydroxy-3,3,5,5-tetramethyl-cyclohexylethynyl)-purin-9-yl]-3,4-dihydroxytetrahydrofuran-2-carboxylic acid ethylamide]
8.71	9.2	157 ± 14	98.1	23.6 ± 0.35	14.8	1.6 ± 0.28	CCNC(=O)[C@H]1O[C@@H](n2cnc3c(N)nc(C#CC4(O)CCCC(C)(C)C4)nc32)C(O)C1O (stereo in doubt) [JR-3201B, 5-[6Amino-2-(1-hydroxy-3,3-dimethylcyclohexylethynyl)-purin-9-yl]-3,4-dihydroxytetrahydrofuran-2-carboxylic acid ethylamide]
14.1	9.11	14.7 ± 2.2	9.5	43.3 ± 18	28.1	1.5 ± 0.22	CCNC(=O)[C@H]1O[C@@H](n2cnc3c(N)nc(C#CC4(O)CCC(C(C)(C)C)CC4)nc32)C(O)C1O (stereo in doubt) [JR-3203, 5-[6-Amino-2-(4-tert-butyl-1-hydroxycyclohexylethynyl)purin-9-yl]-3,4-dihydroxytetrahydrofuran-2-carboxylic acid ethylamide]
7410	7.14	536	21.4	50	2.0	25.1 ± 1.3	CCNC(=O)[C@H]1O[C@@H](n2cnc3c(N)nc(C#CC4(O)CCCCC4C(C)(C)C)nc32)C(O)C1O (stereo in doubt) [JR-3227, 5-[6-Amino-2-(2-tert-butyl-1-hydroxycyclohexylethynyl)purin-9-yl]-3,4-dihydroxytetrahydrofuran-2-carboxylic acid ethylamide]

The next lines start with the compound.

Compound	EC50 (human neutrophils) [nM]	PMN oxid + roli (-log EC50) (human neutrophils)	Ki (human A1 AR) [nM]	A1/A2A (human A1 AR)	Ki (A3 AR) [nM]	A3/A2A (A3 AR)	Ki [1] [nM]
CCNC(=O)[C@H]1O[C@@H](n2cnc3c(N)nc(C#CCC4CCC(C(C)=O)CC4)nc32)C(O)C1O (stereo in doubt) [JR-3119, 5-{2-[3-(4-Acetyl-cyclohexyl)-prop-1-ynyl]-6-aminopurin-9-yl}-3,4-dihydroxytetrahydrofuran-2-carboxylic acid ethylamide]	28.8	8.7	28.7 ± 3.3	11.9	18.6 ± 4.4	7.7	2.4 ± 0.2
CCNC(=O)[C@H]1O[C@@H](n2cnc3c(N)nc(C#CCC4CCC(C(C)O)CC4)nc32)C(O)C1O (stereo in doubt) [JR-3121, 5-(6-Amino-2-{3-[4-(1-hydroxy-ethyl)-cyclohexyl]-prop-1-ynyl}-purin-9-yl)-3,4-dihydroxytetrahydrofuran-2-carboxylic acid ethylamide]	105	8.31	52.3 ± 7.6	9.3	71 ± 16	12.6	5.7 ± 0.6
CCNC(=O)[C@H]1O[C@@H](n2cnc3c(N)nc(C#CC(O)(C4CCCCC4)C4CCCCC4)nc32)C(O)C1O (stereo in doubt) [JR-3139, 5-[6-Amino-2-(3,3-dicyclohexyl-3-hydroxy-prop-1-ynyl)-purin-9-yl]-3,4-dihydroxytetrahydrofuran-2-carboxylic acid ethylamide]	4070	6.75	801 ± 99	4.8	83.7 ± 30	0.5	166 ± 42
CCNC(=O)[C@H]1O[C@@H](n2cnc3c(N)nc(C#CC4(O)CCC(c5ccccc5)CC4)nc32)C(O)C1O (stereo in doubt) [JR-3161, 5-[6-Amino-2-(1-hydroxy-4-phenyl-cyclohexylethynyl)-purin-9-yl]-3,4-dihydroxytetrahydrofuran-2-carboxylic acid ethylamide]	4.47	9.29	10.9 ± 0.5	12.2	113 ± 6	127.0	0.9 ± 0.04
CCNC(=O)[C@H]1O[C@@H](n2cnc3c(N)nc(C#CCN4CCN(C(=O)OCC)CC4)nc32)C(O)C1O (stereo in doubt) [JR-3213, 4-{3-[6-Amino-9-(5-ethylcarbamoyl-3,4-dihydroxytetrahydrofuran-2-yl)-9H-purin-2-yl]-prop-2-ynyl}-piperazine-1-carboxylic acid ethyl ester]	3.47	9.11	15.8 ± 0.48	8.3	42.3 ± 18.3	22.3	1.9 ± 0.4
CCNC(=O)[C@H]1O[C@@H](n2cnc3c(N)nc(C#CCC4CCN(C(=O)OC(C)(C)C)CC4)nc32)C(O)C1O (stereo in doubt) [JR-3259, 4-{3-[6-Amino-9-(5-ethylcarbamoyl-3,4-dihydroxytetrahydrofuran-2-yl)-9H-purin-2-yl]-prop-2-ynyl}-piperidine-1-carboxylic acid tert-butyl ester]	3.47	9.26	205 ± 2.6	227.8	45.6 ± 10	50.7	0.9 ± 0.1
CCNC(=O)[C@H]1O[C@@H](n2cnc3c(N)nc(C#CCC4CCN(C(=O)OCC)CC4)nc32)C(O)C1O (stereo in doubt) [JR-3269, 4-{3-[6-Amino-9-(5-ethylcarbamoyl-3,4-dihydroxytetrahydrofuran-2-yl)-9H-purin-2-yl]-prop-2-ynyl}-piperidine-1-carboxylic acid ethyl ester]	2.24	–	134	106.0	68.6	54.4	1.26 ± 0.21
CCNC(=O)[C@H]1O[C@@H](n2cnc3c(N)nc(C#CCN4CCC(C(=O)OCC)CC4)nc32)C(O)C1O (stereo in doubt) [JR-3279, 1-{3-[6-Amino-9-(5-ethylcarbamoyl-3,4-dihydroxytetrahydrofuran-2-yl)-9H-purin-2-yl]-prop-2-ynyl}-piperidine-4-carboxylic acid ethyl ester]	13.8	–	14.4	3.8	–	0.0	3.82 ± 0.95
CCNC(=O)[C@H]1O[C@@H](n2cnc3c(N)nc(C#CCN4CCN(C(=O)OC(C)(C)C)CC4)nc32)C(O)C1O (stereo in doubt) [JR-3281, 4-{3-[6-Amino-9-(5-ethylcarbamoyl-3,4-dihydroxytetrahydrofuran-2-yl)-9H-purin-2-yl]-prop-2-ynyl}-piperazine-1-carboxylic acid tert-butyl ester]	6.46	–	9.15 ± 1.35	3.9	38	16.1	2.36 ± 0.5

Reference: US7737127B2, “2-propynyl adenosine analogs having A2A agonist activity and compositions thereof” (University of Virginia Patent Foundation, priority 2001, dated 2010)
